Here are results for 6 molecules from ChEMBL document CHEMBL1255194, “A stereo-controlled synthesis of 2,4-dimethyl-4-hydroxy-16-phenylhexadecanoic acid 1,4-lactone and its PPAR activities” (Bioorg Med Chem Lett, 2010).

Test [1] deals with T1, Peroxisome proliferator-activated receptor gamma (Mus musculus, UniProt P37238).
T1 sequence (P37238 whole entry): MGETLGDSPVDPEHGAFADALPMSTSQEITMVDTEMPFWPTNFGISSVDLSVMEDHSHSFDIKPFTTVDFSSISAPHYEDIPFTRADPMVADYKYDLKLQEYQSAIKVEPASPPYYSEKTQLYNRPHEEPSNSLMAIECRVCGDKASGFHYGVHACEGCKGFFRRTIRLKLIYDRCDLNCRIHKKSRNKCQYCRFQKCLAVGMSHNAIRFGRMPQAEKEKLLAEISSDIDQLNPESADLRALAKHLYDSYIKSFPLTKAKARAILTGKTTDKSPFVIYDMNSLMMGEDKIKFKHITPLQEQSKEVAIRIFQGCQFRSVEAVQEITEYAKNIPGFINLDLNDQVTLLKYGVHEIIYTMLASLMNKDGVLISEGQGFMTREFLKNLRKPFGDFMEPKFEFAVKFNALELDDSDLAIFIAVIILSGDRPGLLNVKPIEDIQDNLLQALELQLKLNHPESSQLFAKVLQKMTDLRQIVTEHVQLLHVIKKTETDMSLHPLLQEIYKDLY
The test is described as follows: Transactivation of mouse PPARgamma expressed in CV1 cells at 100 uM. The note with it: cv-1. The test is classed as cell-based.

The target in test [2] is T2, Peroxisome proliferator-activated receptor alpha (Mus musculus, UniProt P23204).
T2 sequence (P23204 whole entry): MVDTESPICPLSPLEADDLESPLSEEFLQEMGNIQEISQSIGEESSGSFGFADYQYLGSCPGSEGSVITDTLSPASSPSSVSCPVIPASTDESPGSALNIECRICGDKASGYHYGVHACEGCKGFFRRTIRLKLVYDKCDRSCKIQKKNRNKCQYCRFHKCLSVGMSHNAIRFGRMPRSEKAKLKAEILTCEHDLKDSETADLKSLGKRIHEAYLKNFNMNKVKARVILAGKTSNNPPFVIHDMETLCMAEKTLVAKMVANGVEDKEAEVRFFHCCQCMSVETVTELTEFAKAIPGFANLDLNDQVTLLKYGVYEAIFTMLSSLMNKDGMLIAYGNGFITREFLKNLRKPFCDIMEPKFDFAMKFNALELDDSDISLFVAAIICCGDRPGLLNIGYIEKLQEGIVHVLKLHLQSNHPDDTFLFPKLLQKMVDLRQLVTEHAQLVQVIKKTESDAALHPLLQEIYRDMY
As to the kind of experiment: Transactivation of mouse PPARalpha expressed in CV1 cells. Format: cell-based, CV-1.

Test [3] concerns the target T3, Peroxisome proliferator-activated receptor delta (Mus musculus, UniProt P35396).
T3 sequence (P35396 whole entry): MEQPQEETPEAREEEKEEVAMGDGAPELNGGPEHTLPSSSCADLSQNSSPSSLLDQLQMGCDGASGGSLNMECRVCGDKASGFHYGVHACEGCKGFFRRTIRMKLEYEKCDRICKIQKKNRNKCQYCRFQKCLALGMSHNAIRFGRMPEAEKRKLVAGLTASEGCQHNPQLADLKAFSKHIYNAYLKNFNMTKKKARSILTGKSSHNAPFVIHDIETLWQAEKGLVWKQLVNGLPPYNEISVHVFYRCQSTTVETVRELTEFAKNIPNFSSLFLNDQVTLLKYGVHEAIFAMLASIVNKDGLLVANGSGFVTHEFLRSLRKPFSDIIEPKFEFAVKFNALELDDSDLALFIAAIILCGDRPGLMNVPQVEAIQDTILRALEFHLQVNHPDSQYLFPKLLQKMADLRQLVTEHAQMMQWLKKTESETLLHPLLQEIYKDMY
As to the kind of experiment: Transactivation of mouse PPARdelta expressed in CV1 cells. The test is classed as cell-based, CV-1.

pEC50: −log10 of the molar value.

As usually defined, the pEC50 is the EC50 on a negative log10 scale, so that one unit is a factor of ten. Lower therefore signals a large EC50. For `C[C@H]1C[C@](C)(CCCCCCCCCCCCc2ccccc2)OC1=O` (stereo in doubt), the EC50 result in test [1] was “Not Active”. For the same molecule, the pEC50 in test [2] was 4.89; in test [3], 4.80.
Taken in the same sequence, the figures for `C[C@H]1C[C@@](C)(CCCCCCCCCCCCc2ccccc2)OC1=O` (stereo in doubt) were “Not Active”, 4.62 and 4.66.
For the molecule `C[C@H]1C[C@](C)(CCCCCCCCCCCCc2ccccc2)OC1=O` (stereo in doubt; (+)-1c), the results for the negative-log EC50 (pEC50) in test [2] and in test [3] were 4.60 and 4.62, respectively.
For `C[C@H]1C[C@@](C)(CCCCCCCCCCCCc2ccccc2)OC1=O` (stereo in doubt; 1a), the values for the pEC50 in test [2] and in test [3] (cv-1) were 4.70 and 4.66, respectively.
As for `C[C@@H]1C[C@@](C)(CCCCCCCCCCCCc2ccccc2)OC1=O`, in test [1], the EC50 entry was “Not Active”. Besides, the negative logarithm of the EC50 (pEC50) is 4.92 in test [2] and 5.05 in test [3].
Taken in the same sequence, the figures for `C[C@@H]1C[C@](C)(CCCCCCCCCCCCc2ccccc2)OC1=O` were “Not Active”, 4.41 and 4.47.
